Entries after “also recorded” stand apart in the source; their conditions may differ.
B1: IL-1β: mouse IL-1β (Sigma) injected via the tail vein at 100 ng/mouse (protein, UniProt P10749 118-269, looked up)
Interleukin-1 beta: VPIRQLHYRLRDEQQKSLVLSDPYELKALHLNGQNINQQVIFSMSFVQGEPSNDKIPVALGLKGKNLYLSCVMKDGTPTLQLESVDPKQYPKKKMEKRFVFNKIEVKSKVEFESAEFPNWYISTSQAEHKPVFLGNNSGQDIIDFTMESVSS

Legend:
[1] = literature references; cited from earlier work
erythroblasts = experiment: In vivo micronucleus assay in Atm−/−, Atm+/− and wildtype mice with DSS colitis; parameters: species or system mouse; settings: all genotypes, more severe in Atm−/−
Procedure: In vivo micronucleus assay. […] At least 4000 mature erythrocytes were counted per animal, and the frequency of MN formation was calculated as the number of micronucleated erythrocytes per 1000 normochromatic erythrocytes.

peripheral leukocytes [2] = experiment: Alkaline comet assay with and without hOgg1 incubation, DSS colitis; type: in vivo, mouse
From the text: Blood collection. […] Identical blood samples were used for genotoxic endpoints as well as for cytokine expression.
Alkaline comet assay. […] Frozen blood was further diluted 1:15 in PBS before further preparation.
Determination of oxidative DNA damage. The enzyme hOgg1-modified comet assay was used for determination of oxidative DNA damage (25). […] (New England Biolabs, Ipswich, Mass.).

peripheral blood T-cells = experiment: Flow cytometry of activated T-cells (CD69, CD44) in peripheral blood, DSS colitis; type: in vivo, mouse; settings: in response to DSS treatment
From the text: Flow Cytometry. T cell populations were characterized for activation status (CD69 and CD44) and CD4 or CD8α expression using flow cytometry. Erythrocytes were immediately lysed with BD PharmLyse Lysis Buffer (BD Biosciences, San Diego, Calif.). After washing with Stain Buffer with 0.2% BSA (BD), cells were stained with FITC conjugated Hamster Anti-Mouse CD69, FITC conjugated Rat Anti-Mouse/Human CD44, R-PE conjugated Rat Anti-Mouse CD4, PerCP Rat Anti-Mouse CD8α, or appropriate negative isotype controls (BD Biosciences) for 30 min at 4° C. Cells were then washed and analyzed using BD FACScan. Fluorescence intensity was normalized to each respective isotype control antibody and data were analyzed with CellQuest® (BD Biosciences). Dead cells were excluded by gating on forward/side scatter. Marker expression was recorded either as percent positive of the absolute count of total T cells, or by median fluorescence intensity if the control and marker populations overlapped.

mice = experiment: Disease activity index in DSS-induced experimental colitis; type: in vivo
Procedure: Induction of chemical colitis. […] Acute colitis was defined as a 7 day treatment, and chronic colitis as any further treatment including remission periods. Control animals received sterile acidified water only. Symptoms (weight loss, stool consistency, gross bleeding) were recorded daily for calculation of disease activity index (23).
Evaluation of Experimental Colitis. The disease activity index (DAI) is the average combined score of weight loss (0-4), stool consistency (0-4), and bleeding (0-4), used to score clinical symptoms (23).

peripheral leukocytes [3] = experiment: 8-oxoguanine and nitrotyrosine immunofluorescence, DSS colitis; type: in vivo, mouse; settings: DSS 7 days, 3% w/v; p<0.01
From the text: (§1) Immunofluorescence. […] Samples were then processed on coverslips essentially as described elsewhere (26).
8-oxoguanine is an oxidative DNA lesion formed by reaction of hydroxyl radicals, metal hyrdroperoxides, or peroxynitrite with DNA, causing G:C to T:A transversions during replication (33). Nitrotyrosine is a biochemical marker for NO-induced peroxynitrite formation involving reactions with reactive oxygen and nitrogen species resulting in nitrative damage to proteins (34).

peripheral leukocytes [4] = experiment: γ-H2AX immunofluorescence, DSS colitis; type: in vivo, mouse
From the text: as §1

peripheral leukocytes [5] = settings: mouse, in vivo
Procedure: Alkaline comet assay. To detect DNA strand breaks, as well as alkali labile sites in DNA, the alkaline comet assay was performed as described elsewhere (4). Frozen blood or single cell suspensions were thawed on ice and further diluted 1:15 in PBS before further sample preparation. After lysis and electrophoresis, gels were stained with SYBR Gold (Molecular Probes) and visualized under a fluorescent microscope (Olympus Ax70, Tokyo, Japan) at 10× magnification. Comet images were captured and analyzed with the CASP image analysis program (http://casp.sourceforge.net). The olive tail moment, which represents both tail length and fraction of DNA in the tail, was used for data collection and analysis, in which apoptotic cells were excluded under previously proposed criteria (4).
Injection of cytokines. Mouse TNF-α (Sigma) and/or mouse IL-1β (Sigma) were injected via the tail vein at 500 ng/mouse and 100 ng/mouse, respectively, dissolved in saline. Control animals received vehicle only. Peripheral blood was collected at 1 hr, 2 hrs, 4 hrs, and 24 hrs after injection for genotoxicity assays.

[6] = test system: normochromatic erythrocytes; experiment: Micronucleus assay after cytokine injection; type: in vivo, mouse; settings: 48 hours post-injection compared to before injection
Procedure: In vivo micronucleus assay. Micronucleus formation was determined in normochromatic erythrocytes as micronucleated normochromatic erythrocytes per 1000 normochromatic erythrocytes as described previously (1, 8).
Injection of cytokines. […] Control animals received vehicle only.

Molecule | Mutagenicity / direct genotoxicity of DSS itself [1] | Micronucleus formation in erythroblasts (toxicity of inflammation) (erythroblasts) | Mean olive tail moment (DNA single and double strand breaks, alkali-labile sites) (peripheral leukocytes [2]; DSS treated vs non-treated mice, end of each cycle, p<0.01) | Mean olive tail moment with hOgg1 incubation (oxidative base damage) (peripheral leukocytes [2]; after treatment cycles, treated vs hOgg1 incubated non-treated mice, p<0.05) | Proportion of activated (CD69+, CD44+) T-cells, Atm−/− vs wildtype mice (peripheral blood T-cells) | Mortality (mice; after three cycles of DSS treatment, wildtype mice) | Start of rectal bleeding (mice; cycle 1 of 3% DSS treatment) | 8-oxoguanine and nitrotyrosine positive peripheral leukocytes (peripheral leukocytes [3]) | Percentage of cells positive for γ-H2AX nuclear foci (peripheral leukocytes [4]; after the first 7 day acute DSS treatment vs non-treated, p<0.01) | Percentage of cells positive for γ-H2AX nuclear foci (peripheral leukocytes [4]; later cycles until end of treatment vs non-treated, p<0.05) | Sufficiency to induce genotoxicity to peripheral leukocytes (peripheral leukocytes [5]) | Time post-injection within which DNA damage was repaired (peripheral leukocytes [5]) | Micronuclei formation in circulating normochromatic erythrocytes [6]
dextran sulfate sodium [DSS] | not directly genotoxic; also recorded: not a mutagen nor genotoxic | evident as early as after the acute 7 day treatment | significantly higher olive tail moments at the end of each cycle | higher when incubated with hOgg1 after treatment cycles | significantly larger proportion of these T-cells are activated | no mortalities were observed | 4 days | significant increase in both 8-oxoguanine and nitrotyrosine | increased dramatically | remained elevated over non-treated animals until end of treatment | – | – | –
TNF-α | – | – | – | – | – | – | – | – | – | – | sufficient to induce genotoxicity | ≤ 24 h | minimally yet significantly elevated
B1 | – | – | – | – | – | – | – | – | – | – | – | ≤ 24 h | –

Source: patent US8940491B2, “Genotoxicity as a biomarker for inflammation” (The Regents of the University of California, priority 2009, dated 2015)
